ChEMBL document CHEMBL1201862, “PubChem BioAssay data set” (2004)
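In this assay, cells in 96-well plates receive the compound at five concentrations for 48 hours. Endpoints are linearly interpolated between the surrounding concentrations. The concentration for 50% growth inhibition is given as GI50.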 Active and inactive are the calls of the source. Cut-off read from the data, not from the text of the source: active = GI50 up to about 1.1 µM and inactive = higher.

What was measured:
Assay in all cases: NCI tumour cell line growth inhibition, 48 h
SK-MEL-28 = tested on: SK-MEL-28
NCI-H23 = tested on: NCI-H23
MDA-MB-435 = tested on: MDA-MB-435
A549 = tested on: A549
OVCAR-5 = tested on: OVCAR-5
HT-29 = tested on: HT-29
SNB-75 = tested on: SNB-75
MDA-MB-231 = tested on: MDA-MB-231
UACC-257 = tested on: UACC-257
OVCAR-3 = tested on: OVCAR-3
SF-539 = tested on: SF-539
LOX IMVI = tested on: LOX IMVI
CCRF-CEM = tested on: CCRF-CEM
HL-60 = tested on: HL-60
NCI-H226 = tested on: NCI-H226
DU-145 = tested on: DU-145
K562 = tested on: K562
SF-295 = tested on: SF-295
OVCAR-8 = tested on: OVCAR-8
RXF 393 = tested on: RXF 393

Measured: GI50

COc1cc2c(cc1OC)C1Cc3ccccc3CCN1CC2 (stereo not given)
inactive: SK-MEL-28 > 100 µM | NCI-H23 > 100 µM | MDA-MB-435 > 100 µM | A549 > 100 µM | OVCAR-5 > 100 µM | HT-29 48.1 µM | SNB-75 68.5 µM | MDA-MB-231 > 100 µM | UACC-257 > 100 µM | OVCAR-3 > 100 µM | SF-539 > 100 µM | LOX IMVI > 100 µM | CCRF-CEM > 100 µM | HL-60 > 100 µM | NCI-H226 60.4 µM | DU-145 > 100 µM | K562 62.1 µM | SF-295 81.1 µM | OVCAR-8 > 100 µM

O=C1N(Cc2ccccc2)C2CSCC2N1Cc1ccccc1 (stereo not given)
inactive: SK-MEL-28 37.7 µM | NCI-H23 27.8 µM | MDA-MB-435 20.2 µM | A549 40 µM | OVCAR-5 15.9 µM | HT-29 16.7 µM | SNB-75 41.9 µM | MDA-MB-231 12.1 µM | UACC-257 24.8 µM | RXF 393 20.6 µM | OVCAR-3 10.4 µM | SF-539 24.5 µM | LOX IMVI 30.2 µM | CCRF-CEM 51.2 µM | NCI-H226 24.1 µM | DU-145 50.9 µM | K562 55.5 µM | SF-295 37.3 µM | OVCAR-8 33.3 µM

N#Cc1c(-c2ccc(Cl)cc2)cc(-c2ccc(Nc3ccnc4cc(Cl)ccc34)cc2)nc1N
inactive: SK-MEL-28 > 100 µM | NCI-H23 > 100 µM | MDA-MB-435 > 100 µM | A549 > 100 µM | OVCAR-5 > 100 µM | SNB-75 > 100 µM | MDA-MB-231 > 100 µM | RXF 393 > 100 µM | OVCAR-3 > 100 µM | SF-539 87.7 µM | HL-60 > 100 µM | NCI-H226 > 100 µM | DU-145 > 100 µM | K562 > 100 µM | SF-295 > 100 µM | OVCAR-8 40.1 µM

C[N+]1(CC[N+]2(C)CCCC2c2cccnc2)CCCC1c1cccnc1 (stereo not given)
inactive: SK-MEL-28 61.8 µM | NCI-H23 > 100 µM | MDA-MB-435 33.2 µM | A549 > 100 µM | OVCAR-5 > 100 µM | HT-29 50.6 µM | SNB-75 > 100 µM | MDA-MB-231 > 100 µM | UACC-257 76.2 µM | RXF 393 > 100 µM | OVCAR-3 > 100 µM | SF-539 > 100 µM | LOX IMVI > 100 µM | DU-145 > 100 µM | K562 96.4 µM | SF-295 > 100 µM | OVCAR-8 > 100 µM

CC1OC(OC2C(OC3CCC4(C)C(CCC5(C)C4CC=C4C6CC(C)(C)CCC6(C(=O)O)CCC45C)C3(C)CO)OCC(O)C2O)C(O)C(O)C1O (stereo not given)
inactive: SK-MEL-28 6.37 µM | NCI-H23 17.7 µM | MDA-MB-435 18.7 µM | A549 19.1 µM | OVCAR-5 19.8 µM | HT-29 15.5 µM | SNB-75 14.2 µM | MDA-MB-231 17.9 µM | UACC-257 18.5 µM | RXF 393 2.72 µM | OVCAR-3 27.3 µM | SF-539 15.5 µM | LOX IMVI 11.1 µM | CCRF-CEM 4.68 µM | NCI-H226 21.2 µM | DU-145 18.9 µM | K562 11.6 µM | SF-295 15.1 µM | OVCAR-8 20.3 µM

O=C(NC1CCC(=O)N1C(=O)OCc1ccccc1)OCc1ccccc1 (stereo not given)
inactive: SK-MEL-28 > 100 µM | NCI-H23 > 100 µM | MDA-MB-435 > 100 µM | A549 > 100 µM | OVCAR-5 > 100 µM | HT-29 > 100 µM | SNB-75 77.6 µM | MDA-MB-231 > 100 µM | UACC-257 > 100 µM | RXF 393 > 100 µM | OVCAR-3 > 100 µM | SF-539 > 100 µM | NCI-H226 > 100 µM | DU-145 > 100 µM | K562 > 100 µM | SF-295 > 100 µM | OVCAR-8 > 100 µM

C=[N+](CNC(=O)CNC(=O)C(Cc1ccccc1)NC(=O)OC(C)(C)C)C(=O)CNC(=O)C(Cc1ccccc1)NC(=O)OC(C)(C)C (stereo not given)
inactive: SK-MEL-28 > 100 µM | NCI-H23 > 100 µM | MDA-MB-435 > 100 µM | A549 > 100 µM | OVCAR-5 > 100 µM | HT-29 > 100 µM | SNB-75 > 100 µM | MDA-MB-231 > 100 µM | UACC-257 > 100 µM | RXF 393 > 100 µM | OVCAR-3 > 100 µM | SF-539 > 100 µM | LOX IMVI > 100 µM | CCRF-CEM > 100 µM | NCI-H226 > 100 µM | DU-145 > 100 µM | K562 > 100 µM | SF-295 > 100 µM | OVCAR-8 > 100 µM

CC(C)OP(=O)(OC(C)C)c1c(N)n[nH]c1Nc1ccccc1
inactive: SK-MEL-28 > 100 µM | NCI-H23 > 100 µM | MDA-MB-435 > 100 µM | A549 > 100 µM | OVCAR-5 > 100 µM | HT-29 > 100 µM | SNB-75 > 100 µM | MDA-MB-231 > 100 µM | UACC-257 > 100 µM | RXF 393 > 100 µM | OVCAR-3 > 100 µM | SF-539 > 100 µM | LOX IMVI > 100 µM | CCRF-CEM > 100 µM | NCI-H226 > 100 µM | DU-145 > 100 µM | K562 > 100 µM | SF-295 > 100 µM | OVCAR-8 > 100 µM

CC(NC(=O)OC(C)(C)C)C(=O)C(N)=O (stereo not given)
inactive: SK-MEL-28 > 100 µM | NCI-H23 > 100 µM | MDA-MB-435 > 100 µM | A549 > 100 µM | OVCAR-5 > 100 µM | SNB-75 > 100 µM | MDA-MB-231 > 100 µM | SF-539 > 100 µM | LOX IMVI > 100 µM | CCRF-CEM > 100 µM | HL-60 > 100 µM | NCI-H226 > 100 µM | DU-145 > 100 µM | K562 > 100 µM | OVCAR-8 > 100 µM

Nn1c(Nc2ccc(S(=O)(=O)Nc3ncccn3)cc2)nnc(/C=C/c2c(O)ccc3ccccc23)c1=O
inactive: NCI-H23 19.8 µM | MDA-MB-435 25.2 µM | A549 46 µM | OVCAR-5 32.7 µM | HT-29 33.9 µM | SNB-75 22.2 µM | MDA-MB-231 21.8 µM | UACC-257 20.1 µM | RXF 393 26.2 µM | OVCAR-3 15.1 µM | LOX IMVI 30.3 µM | CCRF-CEM 15.8 µM | HL-60 20.6 µM | DU-145 33.5 µM | K562 29 µM | OVCAR-8 34.6 µM

COc1ccc([S+]([O-])Cc2cc(OC)ccc2OC)cc1 (stereo not given)
inactive: SK-MEL-28 > 100 µM | NCI-H23 > 100 µM | MDA-MB-435 > 100 µM | A549 > 100 µM | OVCAR-5 > 100 µM | HT-29 > 100 µM | SNB-75 > 100 µM | MDA-MB-231 > 100 µM | UACC-257 > 100 µM | RXF 393 > 100 µM | OVCAR-3 > 100 µM | SF-539 > 100 µM | LOX IMVI > 100 µM | CCRF-CEM > 100 µM | NCI-H226 > 100 µM | DU-145 > 100 µM | K562 > 100 µM | SF-295 > 100 µM | OVCAR-8 > 100 µM

CC1=CC(=O)C(=CN2C(=O)/C(=C\c3cccnc3)NC2=S)C(=O)O1
inactive: SK-MEL-28 > 100 µM | NCI-H23 > 100 µM | MDA-MB-435 > 100 µM | A549 > 100 µM | OVCAR-5 > 100 µM | HT-29 > 100 µM | SNB-75 > 100 µM | MDA-MB-231 > 100 µM | UACC-257 > 100 µM | OVCAR-3 > 100 µM | SF-539 > 100 µM | LOX IMVI > 100 µM | HL-60 54.3 µM | NCI-H226 > 100 µM | DU-145 > 100 µM | SF-295 > 100 µM | OVCAR-8 > 100 µM

CC(NC(=O)c1ccccc1)NC(=O)C(C)C(=O)Nc1ccccc1 (stereo not given)
inactive: NCI-H23 > 100 µM | MDA-MB-435 > 100 µM | A549 > 100 µM | OVCAR-5 > 100 µM | HT-29 > 100 µM | SNB-75 33.3 µM | MDA-MB-231 > 100 µM | UACC-257 > 100 µM | RXF 393 89.1 µM | SF-539 > 100 µM | CCRF-CEM > 100 µM | HL-60 > 100 µM | NCI-H226 89.5 µM | DU-145 > 100 µM | K562 > 100 µM | SF-295 > 100 µM | OVCAR-8 94.6 µM

Cc1ccc(S(=O)(=O)N/N=C2/C3CC4CCC2C4C3)cc1 (stereo not given)
inactive: SK-MEL-28 > 100 µM | NCI-H23 > 100 µM | MDA-MB-435 > 100 µM | A549 > 100 µM | OVCAR-5 > 100 µM | HT-29 > 100 µM | SNB-75 > 100 µM | MDA-MB-231 > 100 µM | UACC-257 > 100 µM | RXF 393 > 100 µM | OVCAR-3 > 100 µM | SF-539 > 100 µM | LOX IMVI > 100 µM | NCI-H226 > 100 µM | DU-145 > 100 µM | SF-295 > 100 µM | OVCAR-8 > 100 µM

Cc1cn([C@@H]2O[C@H](CO[Si](C)(C)C(C)(C)C)[C@]3(O[C@H]3C(=O)NN)[C@H]2O[Si](C)(C)C(C)(C)C)c(=O)[nH]c1=O
inactive: SK-MEL-28 10.3 µM | NCI-H23 14.1 µM | MDA-MB-435 7.11 µM | A549 6.03 µM | OVCAR-5 8.55 µM | HT-29 2.9 µM | SNB-75 7.98 µM | MDA-MB-231 3.57 µM | UACC-257 13 µM | OVCAR-3 3.76 µM | SF-539 4.75 µM | LOX IMVI 3.33 µM | CCRF-CEM 2.42 µM | HL-60 3.13 µM | NCI-H226 12 µM | DU-145 6.31 µM | K562 2.75 µM | SF-295 7.69 µM | OVCAR-8 6.62 µM
